Numbers after ± are expanded uncertainties.
Assay: molar enthalpy of vaporization or sublimation
Details: 298.15 K; Crystal; Calvet

SMILES | molar enthalpy [kcal/mol]
Oc1ccccc1I [2-iodophenol] | 18.2 ± 0.669
Oc1ccc(I)cc1 [4-iodophenol] | 21.2 ± 0.717
Oc1cccc(I)c1 [m-iodophenol] | 21.1 ± 0.765
